Source: PMC6059979 (European journal of medicinal chemistry, 2018)
Peptide text beside a SMILES is read from it. * marks the point of attachment. Palmitoyl = CCCCCCCCCCCCCCCC(=O)*

Experiments:
Assay type in all cases: cell-based
[1] = test system: Methicillin Resistant Staphylococcus epidermidis (MRSE, RP62A); conditions: Methicillin Resistant (, RP62A, 18 h)
[2] = test system: Klebsiella pneumoniae (K. pneumoniae, ATCC 13383); conditions: ATCC 13383, 18 h
[3] = test system: Vancomycin Resistant Enterococcus faecalis (E. faecalis, ATCC 700802); conditions: ATCC 700802, 18 h
[4] = test system: Methicillin Resistant Staphylococcus aureus (MRSA, ATCC 33591); conditions: ATCC 33591, 18 h
[5] = test system: Escherichia coli (E. coli, JM109); conditions: JM109, 18 h

CCCCCCCCCCCCCCCC(=O)N[C@@H](CCCCN)C(=O)N[C@@H](Cc1ccccc1)C(=O)N[C@@H](CCCCN)C(N)=O [C16-K-F-K] (Palmitoyl-Lys-Phe-Lys-NH2)
>25 µg/mL: MIC MRSE [1] | MIC K. pneumoniae [2] | MIC E. faecalis [3] | MIC MRSA [4] | MIC E. coli [5]
